# According to ChEMBL document CHEMBL1153074, “Novel, achiral aminoheterocycles as selective monoamine reuptake inhibitors” (Bioorg Med Chem Lett, 2009):
# pKi: −log10 of the molar value.
# Assays:
# [1] = molecular target: Sodium-dependent serotonin transporter (Homo sapiens, UniProt P31645)
# [2] = molecular target: Sodium-dependent noradrenaline transporter (Homo sapiens, UniProt P23975)
# [3] = molecular target: Sodium-dependent dopamine transporter (Homo sapiens, UniProt Q01959)
# [4] = molecular target: hERG (KCNH2) (Homo sapiens, UniProt Q12809); assay: in vitro; conditions: CHO cells expressing human ERG
# Sequence of hERG (KCNH2) (Q12809 whole entry): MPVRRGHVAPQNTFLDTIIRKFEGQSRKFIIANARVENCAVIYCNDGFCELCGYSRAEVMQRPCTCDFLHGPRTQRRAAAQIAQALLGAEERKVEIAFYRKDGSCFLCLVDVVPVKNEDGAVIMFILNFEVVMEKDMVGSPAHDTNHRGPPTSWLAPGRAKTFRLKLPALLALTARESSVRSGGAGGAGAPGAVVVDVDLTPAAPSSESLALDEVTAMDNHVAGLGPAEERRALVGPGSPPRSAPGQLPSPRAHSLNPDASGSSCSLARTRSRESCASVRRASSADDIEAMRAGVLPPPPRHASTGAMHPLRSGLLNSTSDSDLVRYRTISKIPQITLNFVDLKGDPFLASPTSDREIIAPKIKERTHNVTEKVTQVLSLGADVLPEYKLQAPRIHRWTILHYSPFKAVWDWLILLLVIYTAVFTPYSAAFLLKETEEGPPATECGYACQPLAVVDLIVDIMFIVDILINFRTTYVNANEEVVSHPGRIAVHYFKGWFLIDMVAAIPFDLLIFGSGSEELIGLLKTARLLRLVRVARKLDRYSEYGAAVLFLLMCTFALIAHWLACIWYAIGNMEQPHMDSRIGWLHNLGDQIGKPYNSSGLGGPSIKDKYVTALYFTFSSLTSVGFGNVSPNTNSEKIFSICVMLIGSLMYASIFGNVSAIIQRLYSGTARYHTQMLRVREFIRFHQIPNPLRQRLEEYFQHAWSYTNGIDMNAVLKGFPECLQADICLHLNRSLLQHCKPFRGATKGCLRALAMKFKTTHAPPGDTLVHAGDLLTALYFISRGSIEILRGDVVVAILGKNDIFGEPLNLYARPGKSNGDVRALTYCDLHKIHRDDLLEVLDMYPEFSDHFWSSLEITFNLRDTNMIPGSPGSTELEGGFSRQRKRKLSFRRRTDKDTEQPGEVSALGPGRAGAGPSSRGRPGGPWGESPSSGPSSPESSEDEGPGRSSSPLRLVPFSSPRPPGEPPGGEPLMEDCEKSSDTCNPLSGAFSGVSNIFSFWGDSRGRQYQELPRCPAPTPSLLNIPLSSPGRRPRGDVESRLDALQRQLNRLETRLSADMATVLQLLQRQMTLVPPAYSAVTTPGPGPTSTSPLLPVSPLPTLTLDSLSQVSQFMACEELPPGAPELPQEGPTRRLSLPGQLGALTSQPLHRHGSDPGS
# Description: Inhibition of human ERG expressed in CHO cells
# [5] = molecular target: CYP3A4 (Homo sapiens, UniProt P08684); assay: in vitro
# Sequence of CYP3A4 (P08684 whole entry): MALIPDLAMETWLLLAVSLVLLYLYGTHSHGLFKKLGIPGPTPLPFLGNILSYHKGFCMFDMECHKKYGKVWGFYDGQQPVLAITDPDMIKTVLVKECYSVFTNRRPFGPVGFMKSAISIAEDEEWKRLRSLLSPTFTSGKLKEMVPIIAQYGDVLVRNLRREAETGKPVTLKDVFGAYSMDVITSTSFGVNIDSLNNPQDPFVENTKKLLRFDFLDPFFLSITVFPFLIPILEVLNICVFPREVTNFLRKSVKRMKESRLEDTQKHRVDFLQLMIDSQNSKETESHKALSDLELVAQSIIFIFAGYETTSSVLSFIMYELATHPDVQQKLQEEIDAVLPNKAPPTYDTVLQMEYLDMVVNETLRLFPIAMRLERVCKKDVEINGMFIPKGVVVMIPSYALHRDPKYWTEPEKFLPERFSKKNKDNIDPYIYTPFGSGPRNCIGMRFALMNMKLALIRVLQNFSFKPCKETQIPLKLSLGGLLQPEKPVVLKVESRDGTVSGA
# Description: Inhibition of CYP3A4 by fluorescence assay
# [6] = molecular target: CYP2D6 (Homo sapiens, UniProt P10635); assay: in vitro
# Sequence of CYP2D6 (P10635 whole entry): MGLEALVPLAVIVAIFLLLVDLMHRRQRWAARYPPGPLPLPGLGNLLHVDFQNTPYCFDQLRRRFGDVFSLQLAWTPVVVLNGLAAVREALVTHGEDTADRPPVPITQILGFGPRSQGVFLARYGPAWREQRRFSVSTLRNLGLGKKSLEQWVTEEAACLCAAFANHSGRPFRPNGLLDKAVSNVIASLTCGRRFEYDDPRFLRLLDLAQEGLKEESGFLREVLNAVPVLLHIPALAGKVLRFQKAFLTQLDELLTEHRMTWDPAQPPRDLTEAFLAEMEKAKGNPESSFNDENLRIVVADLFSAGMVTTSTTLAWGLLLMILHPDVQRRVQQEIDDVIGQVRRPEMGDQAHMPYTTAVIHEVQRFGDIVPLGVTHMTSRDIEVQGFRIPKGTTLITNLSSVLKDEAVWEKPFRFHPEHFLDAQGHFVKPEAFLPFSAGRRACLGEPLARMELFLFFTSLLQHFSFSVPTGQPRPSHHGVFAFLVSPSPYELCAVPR
# Description: Inhibition of CYP2D6 by fluorescence assay
# [7] = in vitro; conditions: human, liver microsomes
# Description: Intrinsic clearance in human liver microsomes
# [8] = in vitro; conditions: human, Caco-2
# Description: Efflux ratio of apparent permeability from basolateral to apical side to apical to basolateral side in human Caco-2 cells at 10 uM after 21 days
# [9] = in vitro; conditions: human, Caco-2; remark: listed apart in the source
# Description: (§1) Apparent permeability from basolateral to apical side of human Caco-2 cells at 10 uM after 21 days
# [10] = in vitro; conditions: human, Caco-2; remark: listed apart in the source
# Description: (§2) Apparent permeability from apical to basolateral side of human Caco-2 cells at 10 uM after 21 days
# [11] = test system: Caco-2; conditions: human, caco-2, 10 µM
# Description: as §1
# [12] = test system: Caco-2; conditions: human, caco-2, 10 µM; remark: listed apart in the source
# Description: as §2
# [13] = molecular target: Cytochrome P450 3A4 (Homo sapiens, UniProt P08684); assay: Inhibition of CYP3A4 in human liver microsomes after 25 mins; format: ADME, Microsome; conditions: TDE = time-dependent effect
# Sequence of Cytochrome P450 3A4 (P08684 whole entry): as the sequence (P08684 whole entry) above
# Sequence of Sodium-dependent serotonin transporter (P31645 whole entry): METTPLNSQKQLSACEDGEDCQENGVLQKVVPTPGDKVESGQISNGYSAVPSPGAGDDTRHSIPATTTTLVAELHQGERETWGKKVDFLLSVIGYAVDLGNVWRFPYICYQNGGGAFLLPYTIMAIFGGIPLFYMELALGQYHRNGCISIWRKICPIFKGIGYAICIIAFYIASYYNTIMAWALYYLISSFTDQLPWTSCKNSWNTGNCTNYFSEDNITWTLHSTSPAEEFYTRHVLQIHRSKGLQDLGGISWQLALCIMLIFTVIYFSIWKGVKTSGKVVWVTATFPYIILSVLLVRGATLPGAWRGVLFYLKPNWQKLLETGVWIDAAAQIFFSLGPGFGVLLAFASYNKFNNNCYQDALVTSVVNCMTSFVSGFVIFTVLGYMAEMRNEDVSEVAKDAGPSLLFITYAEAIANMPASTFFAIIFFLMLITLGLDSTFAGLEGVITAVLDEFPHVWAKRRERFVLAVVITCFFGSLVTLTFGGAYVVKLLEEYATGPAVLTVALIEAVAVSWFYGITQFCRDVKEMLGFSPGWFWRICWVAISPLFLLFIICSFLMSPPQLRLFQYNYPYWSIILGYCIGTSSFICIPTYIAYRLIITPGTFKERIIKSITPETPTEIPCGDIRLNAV
# Sequence of Sodium-dependent dopamine transporter (Q01959 whole entry): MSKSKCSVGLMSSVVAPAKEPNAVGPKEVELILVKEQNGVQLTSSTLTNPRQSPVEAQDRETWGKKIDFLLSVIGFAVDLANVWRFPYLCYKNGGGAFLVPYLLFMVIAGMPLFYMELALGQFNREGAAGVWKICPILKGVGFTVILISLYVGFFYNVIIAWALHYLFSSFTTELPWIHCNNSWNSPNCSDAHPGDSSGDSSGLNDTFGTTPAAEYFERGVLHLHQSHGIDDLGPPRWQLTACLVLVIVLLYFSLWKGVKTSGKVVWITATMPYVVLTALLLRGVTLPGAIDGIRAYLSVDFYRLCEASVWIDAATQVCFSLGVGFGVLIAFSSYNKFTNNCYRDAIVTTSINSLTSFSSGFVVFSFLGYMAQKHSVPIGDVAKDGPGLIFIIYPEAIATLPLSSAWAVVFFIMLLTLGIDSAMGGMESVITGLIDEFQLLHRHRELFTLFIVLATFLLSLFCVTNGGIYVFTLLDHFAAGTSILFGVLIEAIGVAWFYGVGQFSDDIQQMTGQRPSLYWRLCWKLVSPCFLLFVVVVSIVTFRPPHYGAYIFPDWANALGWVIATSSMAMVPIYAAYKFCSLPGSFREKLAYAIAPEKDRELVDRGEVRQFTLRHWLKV
# Sequence of Sodium-dependent noradrenaline transporter (P23975 whole entry): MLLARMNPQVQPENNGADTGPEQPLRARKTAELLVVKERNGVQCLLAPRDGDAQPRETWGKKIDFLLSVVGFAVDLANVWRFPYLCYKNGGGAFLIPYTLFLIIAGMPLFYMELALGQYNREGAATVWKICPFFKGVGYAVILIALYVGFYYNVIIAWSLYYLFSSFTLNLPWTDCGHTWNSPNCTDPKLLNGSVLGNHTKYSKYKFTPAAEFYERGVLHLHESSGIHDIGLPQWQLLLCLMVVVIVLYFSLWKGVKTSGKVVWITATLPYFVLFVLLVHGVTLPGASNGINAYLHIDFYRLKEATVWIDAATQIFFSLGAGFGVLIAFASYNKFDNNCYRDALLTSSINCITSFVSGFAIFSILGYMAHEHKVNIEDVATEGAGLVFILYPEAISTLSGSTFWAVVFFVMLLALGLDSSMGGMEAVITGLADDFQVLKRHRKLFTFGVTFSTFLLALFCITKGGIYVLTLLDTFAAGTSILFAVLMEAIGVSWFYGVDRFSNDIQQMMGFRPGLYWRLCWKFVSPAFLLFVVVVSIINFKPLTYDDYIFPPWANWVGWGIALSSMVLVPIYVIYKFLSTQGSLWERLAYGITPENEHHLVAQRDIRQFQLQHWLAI
SMILES,pKi [1],pKi [2],pKi [3],IC20 [4],IC20 [5],IC20 [6],microsomal CLint [7],efflux ratio at 10 µM [8],Papp B→A at 10 µM [9],Papp A→B at 10 µM [10],Papp [11],Papp [12],inhibition (INH) [13]
N#Cc1ccccc1CN(c1ccc2[nH]ccc2c1)C1CCNCC1,8.40,8.20,6.30,,,,,,,,,,
COc1cccc(CN(c2ccc3[nH]ccc3c2)C2CCNCC2)c1,8.80,8.40,7.10,1000 nM,,,,,,,,,
CNCCN(c1ccccc1)c1ccc2[nH]ccc2c1,6.40,6.70,6.30,,2000 nM,40000 nM,,,,,,,
c1ccc(CN(c2ccc3[nH]ccc3c2)C2CCNC2)cc1 (stereo unspecified),7.70,8.00,7.50,< 1000 nM,2000 nM,2000 nM,36 µL/min/mg,,,,,,
Fc1ccc(CN(c2ccc3[nH]ccc3c2)C2CCNCC2)cc1,8.70,6.60,6.60,,,,,,,,,,
NS(=O)(=O)c1cccc(CN(c2ccc3[nH]ccc3c2)C2CCNCC2)c1,8.20,7.10,7.60,> 10000 nM,2000 nM,3000 nM,2 µL/min/mg,4.2,3 ×10⁻⁶ cm/s,0.7 ×10⁻⁶ cm/s,,,
Cn1ccc2cc(N(Cc3ccccc3)C3CCNCC3)ccc21,8.40,7.60,7.10,5100 nM,5000 nM,> 50000 nM,26 µL/min/mg,,,,4 ×10⁻⁶ cm/s,7 ×10⁻⁶ cm/s,
CNCCC(c1ccccc1)c1ccc2[nH]ccc2c1 (stereo unspecified),7.50,,6.70,< 1000 nM,3000 nM,5000 nM,11 µL/min/mg,,,,,,
c1ccc(CN(c2ccc3sccc3c2)C2CCNCC2)cc1,7.90,6.70,6.70,1000 nM,19000 nM,35000 nM,18 µL/min/mg,,,,0.1 ×10⁻⁶ cm/s,1.4 ×10⁻⁶ cm/s,
Fc1ccccc1CN(c1ccc2[nH]ccc2c1)C1CCNCC1,8.40,7.90,6.90,,,,,,,,,,
c1ccc(N(c2ccc3[nH]ccc3c2)C2CCNCC2)cc1,6.00,5.90,< 5.80,,26000 nM,14000 nM,,,,,,,
c1ccc(CN(c2ccc3[nH]ccc3c2)C2CCNCC2)cc1,,,,1000 nM,100 nM,3000 nM,17 µL/min/mg,,6 ×10⁻⁶ cm/s,6 ×10⁻⁶ cm/s,,,tde
c1ccc(CN(c2ccc3[nH]ccc3c2)C2CCCNC2)cc1 (stereo unspecified),8.20,7.20,7.40,< 1000 nM,300 nM,5000 nM,23 µL/min/mg,,,,,,
c1ccc(CN(c2ccc3[nH]ncc3c2)C2CCNCC2)cc1,8.90,7.80,7.30,< 1000 nM,500 nM,400 nM,,,,,,,
CC(c1ccccc1)N(c1ccc2[nH]ccc2c1)C1CCNCC1 (stereo unspecified),7.40,5.80,5.80,,,,,,,,,,
Fc1cccc(CN(c2ccc3[nH]ccc3c2)C2CCNCC2)c1,8.90,7.90,7.10,,,,,,,,,,
N#Cc1ccc(CN(c2ccc3[nH]ccc3c2)C2CCNCC2)cc1,8.60,6.00,6.10,,,,,,,,,,
c1ccc(CCN(c2ccc3[nH]ccc3c2)C2CCNCC2)cc1,8.20,7.30,6.80,,,,,,,,,,
N#Cc1cccc(CN(c2ccc3[nH]ccc3c2)C2CCNCC2)c1,9.60,8.00,7.50,< 1000 nM,2000 nM,500 nM,13 µL/min/mg,3.6,14 ×10⁻⁶ cm/s,4 ×10⁻⁶ cm/s,,,
c1cc2cc(N(CC3CCOCC3)C3CCNCC3)ccc2[nH]1,7.40,7.40,6.30,,> 50000 nM,27000 nM,,,,,,,
